Laboratory results reported in US20130324522A1, “INSECT ODORANT RECEPTOR ANTAGONISTS” (THE ROCKEFELLER UNIVERSITY, priority 2010, published 2013).

Experiments:
Assay type in all cases: cell-based
OR8/OR7 = OR8/OR7 (Anopheles gambiae, UniProt Q7PUT5+Q7QCC7); test: Ca2+-imaging of stable HEK293T cell line OR8/OR7; conditions: for inhibition at 4 µM: HEK-293T, compound applied at 4 μM, read-out: Percent Inhibition OR8 OR7; for IC50: Table B, read-out: IC50 OR8
Procedure, shortened: (§1)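 Cells were plated 2 days ahead, dye-loaded with Ca-4 for 1.5 hr at room temperature in the dark, and then received odorant solution containing test compound. Intracellular calcium increase was followed as 525 nm emission under 485 nm excitation.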

[1] = target: T1, serotonin receptor (5HT3) (Mus musculus, UniProt P23979); test: Ca2+-imaging of stable Flip-In T-Rex cell line 5HT3; conditions: for inhibition at 4 µM: compound applied at 4 μM, read-out: Percent Inhibition 5HT3
T1 construct: Full-length cDNAs for mosquito (Anopheles gambiae) odorant receptor; expressed in transfected cells
T1 sequence (P23979 24-489): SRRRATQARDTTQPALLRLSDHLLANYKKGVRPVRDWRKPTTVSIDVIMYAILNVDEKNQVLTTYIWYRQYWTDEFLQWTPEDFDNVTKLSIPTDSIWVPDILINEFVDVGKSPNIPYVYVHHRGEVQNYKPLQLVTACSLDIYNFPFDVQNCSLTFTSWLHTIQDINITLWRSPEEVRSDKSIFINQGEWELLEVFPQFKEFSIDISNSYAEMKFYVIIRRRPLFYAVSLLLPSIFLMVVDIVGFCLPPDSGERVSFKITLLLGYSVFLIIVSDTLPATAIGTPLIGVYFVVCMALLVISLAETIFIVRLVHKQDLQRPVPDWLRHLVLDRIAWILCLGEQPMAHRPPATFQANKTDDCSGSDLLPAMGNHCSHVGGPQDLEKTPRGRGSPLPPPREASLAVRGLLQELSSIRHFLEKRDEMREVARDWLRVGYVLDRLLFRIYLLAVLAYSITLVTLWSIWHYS
Procedure, shortened: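 Flp-In T-REx stable lines (Drosophila Or47a/Or83b or mouse 5HT3), 10,000 cells/well cultured 2 days, induced with tetracycline 1 day before assay.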

OR28/OR7 = OR28/OR7 (Anopheles gambiae, UniProt A0A1S4GFY3+Q7QCC7); test: Ca2+-imaging of stable HEK293T cell line OR28/OR7; conditions: for inhibition at 4 µM: HEK-293T, compound applied at 4 μM, read-out: Percent Inhibition OR28 OR7; for IC50: Table B, read-out: IC50 OR28
Procedure: Full-length cDNAs for mosquito (Anopheles gambiae) odorant receptor (OR1, OR2, OR7, OR8, OR28), and fly (Drosophila melanogaster) odorant receptor (Or47a, Or83b), mouse TRP channel (TRPM8), and mouse serotonin receptor (5HT3) were obtained and subcloned into mammalian expression vectors. The following mammalian expression vectors were used:
Stable cell lines OR1/OR7, OR2/OR7, OR8/OR7, OR10/OR7, OR28/OR7 and TRPM8 were generated from HEK293T cells. HEK293T-based cell lines were cultured in DMEM supplemented with these additional antibiotics: 6 μg/mL blasticidin and 1 μg/mL puromycin, with the exception of the TRPM8 cell lines, which was cultured in DMEM supplemented with 1 μg/mL puromycin.
Cells were trypsinized and split into 35 mm dishes one day before transfection. Confluent cells (60-70%) in 35 mm dishes were transfected with 1 μg of insect OR(X) plasmids in pME18s-bla and 1 μg of OR7-pME18s-puro using lipofectamine 2000. For Anopheles odorant receptors, two plasmids were co-transfected into HEK cells: the ligand-specific receptor (OR1, OR2, OR8, OR28) and the corresponding olfactory co-receptor: OR7. Cell lines containing TRPM8 were transfected with single plasmid.
Stable cell lines were cultured in 10 cm dishes, and confluent cells (70-80%) were trypsinized. 10,000 cells/20 μL were transferred into each well of 384-well plates coated with poly-D-lysine, and cultured for 2 days. For Flip-In T-Rex cells (cell lines expressing Or47a/Or83b and 5HT3), 5 μL of tetracycline (5 μg/mL) were added 1 day before the assay. 20 μL of Ca-4 dye was loaded into each well for 1.5 hr at room temperature in the dark, and the dye-loaded plates were subjected to Ca^2+-imaging using a Hamamatsu FDSS6000 real time fluorescence plate reader. Odorant solutions (9× final concentration) were prepared by dissolving 1M stock solutions into Hank's Buffered Salt Solution (HBSS), and 30 μL of odor solution was transferred to each well in 384-well plates.
Compounds ([…] in DMSO) were stored in 384-well plates, and last two columns (32 wells total) contained only DMSO. 200 nL of small compounds were transferred into the odorant plates before the assay using the Perkin-Elmer Janus workstation. The odorant plates were spun down to remove air bubbles, and placed on the FDSS6000 plate loader, and 5 μL of odorant solution was applied to the cell plate on the FDSS6000. Ca^2+ increase was monitored with fluorescence at 525 nm by excitation at 485 nm.

TRP channel (TRPM8) = target: T2, TRP channel (TRPM8) (Mus musculus, UniProt Q8R4D5); test: Ca2+-imaging of stable HEK293T cell line TRPM8; conditions: HEK-293T; compound applied at 4 μM; read-out: Percent Inhibition TRPM8
T2 construct: Full-length cDNAs for mosquito (Anopheles gambiae) odorant receptor (OR1, OR2, OR7, OR8, OR28), and fly (Drosophila melanogaster) odorant receptor (Or47a, Or83b), mouse TRP channel (TRPM8); expressed in transfected cells
Procedure, shortened: as §1

OR8/OR7, sequence (Q7QCC7 whole entry): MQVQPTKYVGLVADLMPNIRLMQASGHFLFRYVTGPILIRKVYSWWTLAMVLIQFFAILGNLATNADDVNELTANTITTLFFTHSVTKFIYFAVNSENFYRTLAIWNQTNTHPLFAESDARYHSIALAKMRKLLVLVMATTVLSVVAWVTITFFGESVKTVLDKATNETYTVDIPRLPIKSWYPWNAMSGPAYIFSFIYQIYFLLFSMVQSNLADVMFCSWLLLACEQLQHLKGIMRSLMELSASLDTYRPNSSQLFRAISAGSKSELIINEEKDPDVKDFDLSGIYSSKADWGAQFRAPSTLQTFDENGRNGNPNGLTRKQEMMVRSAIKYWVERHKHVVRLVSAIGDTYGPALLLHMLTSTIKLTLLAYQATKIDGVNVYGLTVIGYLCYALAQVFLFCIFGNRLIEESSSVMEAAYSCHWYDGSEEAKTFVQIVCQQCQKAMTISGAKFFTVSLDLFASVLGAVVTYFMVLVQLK
OR8/OR7, sequence (Q7PUT5 entry or part of it): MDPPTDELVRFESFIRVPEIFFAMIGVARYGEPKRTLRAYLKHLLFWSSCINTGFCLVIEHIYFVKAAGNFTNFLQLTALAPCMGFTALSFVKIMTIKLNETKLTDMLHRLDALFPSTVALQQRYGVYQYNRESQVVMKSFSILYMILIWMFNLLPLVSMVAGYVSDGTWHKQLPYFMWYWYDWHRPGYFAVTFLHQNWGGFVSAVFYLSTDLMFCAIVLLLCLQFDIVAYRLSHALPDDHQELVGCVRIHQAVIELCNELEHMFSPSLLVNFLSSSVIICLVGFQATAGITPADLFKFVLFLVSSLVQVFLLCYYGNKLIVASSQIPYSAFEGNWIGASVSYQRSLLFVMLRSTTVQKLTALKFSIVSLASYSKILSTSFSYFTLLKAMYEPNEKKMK
T2 sequence (Q8R4D5 whole entry): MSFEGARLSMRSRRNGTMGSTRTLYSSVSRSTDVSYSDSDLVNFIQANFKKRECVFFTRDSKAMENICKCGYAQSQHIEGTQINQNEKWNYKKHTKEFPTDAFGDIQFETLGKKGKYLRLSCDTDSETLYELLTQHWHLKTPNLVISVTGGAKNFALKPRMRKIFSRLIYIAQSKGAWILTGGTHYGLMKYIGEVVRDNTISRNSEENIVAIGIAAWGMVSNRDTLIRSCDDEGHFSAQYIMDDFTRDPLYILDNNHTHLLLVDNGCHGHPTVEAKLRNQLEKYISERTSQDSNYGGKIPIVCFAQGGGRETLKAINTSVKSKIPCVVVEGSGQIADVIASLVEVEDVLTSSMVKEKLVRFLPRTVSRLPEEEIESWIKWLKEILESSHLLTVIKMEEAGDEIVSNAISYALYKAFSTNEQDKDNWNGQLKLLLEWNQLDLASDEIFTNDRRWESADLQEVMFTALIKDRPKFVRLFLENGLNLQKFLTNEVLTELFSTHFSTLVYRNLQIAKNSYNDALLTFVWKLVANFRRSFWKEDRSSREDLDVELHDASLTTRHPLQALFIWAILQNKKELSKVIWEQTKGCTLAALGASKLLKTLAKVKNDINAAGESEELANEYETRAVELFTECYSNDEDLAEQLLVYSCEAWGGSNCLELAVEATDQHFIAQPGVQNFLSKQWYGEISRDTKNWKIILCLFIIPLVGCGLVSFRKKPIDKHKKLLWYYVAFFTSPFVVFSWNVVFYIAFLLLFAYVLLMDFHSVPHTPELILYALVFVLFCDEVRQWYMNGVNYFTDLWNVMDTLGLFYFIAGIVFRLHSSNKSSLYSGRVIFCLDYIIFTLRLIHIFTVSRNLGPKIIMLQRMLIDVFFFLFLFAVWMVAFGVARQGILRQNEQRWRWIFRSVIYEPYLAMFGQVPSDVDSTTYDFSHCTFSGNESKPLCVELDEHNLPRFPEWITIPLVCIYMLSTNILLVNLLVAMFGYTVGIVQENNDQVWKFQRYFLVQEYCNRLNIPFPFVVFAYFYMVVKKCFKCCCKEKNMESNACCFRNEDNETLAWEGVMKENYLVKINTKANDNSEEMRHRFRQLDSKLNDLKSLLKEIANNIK
OR28/OR7, sequence (A0A1S4GFY3 entry or part of it): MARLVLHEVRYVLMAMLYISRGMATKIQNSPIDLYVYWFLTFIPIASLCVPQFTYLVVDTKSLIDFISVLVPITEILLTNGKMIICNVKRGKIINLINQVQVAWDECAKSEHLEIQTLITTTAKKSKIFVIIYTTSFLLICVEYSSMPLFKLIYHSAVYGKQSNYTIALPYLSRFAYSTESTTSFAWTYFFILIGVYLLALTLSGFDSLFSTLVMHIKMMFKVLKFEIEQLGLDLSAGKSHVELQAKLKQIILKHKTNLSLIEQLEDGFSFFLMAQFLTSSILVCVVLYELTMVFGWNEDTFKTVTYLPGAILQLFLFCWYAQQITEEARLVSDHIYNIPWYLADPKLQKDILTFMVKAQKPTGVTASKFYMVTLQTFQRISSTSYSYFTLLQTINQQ
OR28/OR7, sequence (Q7QCC7 whole entry): as the sequence (Q7QCC7 whole entry) above

Compound COc1ccc(C(=O)c2ccccc2)c(O)c1O [RU-0001617] has an inhibition at 4 µM (OR8/OR7) of under 25%, an inhibition at 4 µM [1] of 26 to 50% and an inhibition at 4 µM (OR28/OR7) of 51 to 74%. It also gave an IC50 (OR28/OR7) of over 1000 nM and an inhibition at 4 µM (TRP channel (TRPM8)) of under 25%.

COc1ccc(N2CCN(C(=O)C3CC=CCC3C(=O)NCCCCc3ccccc3)CC2)cc1 (stereo not shown) [RU-0026167] was tested, and the inhibition at 4 µM (OR8/OR7) was 26 to 50%, the inhibition at 4 µM [1] was under 25% and the inhibition at 4 µM (OR28/OR7) was 51 to 74%. It also gave an IC50 (OR28/OR7) of under 100 nM and an inhibition at 4 µM (TRP channel (TRPM8)) of 26 to 50%.

Compound CC(NCc1ccccc1)c1nc2ccccc2c(=O)n1-c1ccc(Cl)cc1 (stereo not shown) [RU-0072535] has an inhibition at 4 µM (OR8/OR7) of under 25%, an inhibition at 4 µM [1] of under 25% and an inhibition at 4 µM (OR28/OR7) of over 75%. For the same compound, the IC50 (OR28/OR7) was under 100 nM and the inhibition at 4 µM (TRP channel (TRPM8)) was under 25%.

CCOCCCN(CC(=O)N(Cc1ccc2c(c1)OCO2)Cc1sccc1C)C(=O)NC(C)(C)C [RU-0052340] was tested, and the inhibition at 4 µM (OR8/OR7) was under 25%, the inhibition at 4 µM [1] was under 25% and the inhibition at 4 µM (OR28/OR7) was over 75%. The IC50 (OR28/OR7) was under 100 nM and the inhibition at 4 µM (TRP channel (TRPM8)) was under 25%.

Compound C=C[C@@](C)(O)CCC1C(=C)CCC2[C@@](C)(CO)CCC[C@]12C (stereo partly shown) [RU-0001327] has an inhibition at 4 µM (OR8/OR7) of 26 to 50%, an inhibition at 4 µM [1] of 26 to 50% and an inhibition at 4 µM (OR28/OR7) of over 75%. The IC50 (OR28/OR7) was over 1000 nM and the inhibition at 4 µM (TRP channel (TRPM8)) was under 25%.

Work on COCCCN(CC(=O)N1CCc2sccc2C1COc1cccc(OC)c1)C(=O)c1ccccc1OC (stereo not shown) [RU-0036294] yielded an inhibition at 4 µM (OR8/OR7) of 51 to 74%, an IC50 (OR8/OR7) of over 1000 nM and an inhibition at 4 µM [1] of under 25%. It also gave an inhibition at 4 µM (OR28/OR7) of over 75%, an IC50 (OR28/OR7) of 100 to 1000 nM and an inhibition at 4 µM (TRP channel (TRPM8)) of 26 to 50%.

Work on Cc1ccc(-n2nc(C)c(CCC(=O)N3CCc4ccccc4C3)c2C)cc1Cl [RU-0026074] yielded an inhibition at 4 µM [1] of under 25%, an inhibition at 4 µM (OR28/OR7) of over 75% and an inhibition at 4 µM (TRP channel (TRPM8)) of 26 to 50%.

In the case of COc1cc(OC)cc(C2NC(=O)N(C)C3=C2C(=O)N(C2CCCCC2)C3)c1 (stereo not shown) [RU-0047750], the inhibition at 4 µM (OR8/OR7) is reported as under 25%, the inhibition at 4 µM [1] is reported as 26 to 50% and the inhibition at 4 µM (OR28/OR7) is reported as over 75%. For the same compound, the IC50 (OR28/OR7) was over 1000 nM and the inhibition at 4 µM (TRP channel (TRPM8)) was under 25%.

In the case of CCOC(=O)C(c1ccc(OC)c(OC)c1)C1C=CC(NC(=O)c2ccc3c(c2)OCO3)C1 (stereo not shown) [RU-0049030], the inhibition at 4 µM (OR8/OR7) is reported as 26 to 50%, the inhibition at 4 µM [1] is reported as under 25% and the inhibition at 4 µM (OR28/OR7) is reported as over 75%. For the same compound, the IC50 (OR28/OR7) was under 100 nM and the inhibition at 4 µM (TRP channel (TRPM8)) was under 25%.

Work on COc1nc(OCC#N)nc(N2CCCCC2)n1 [RU-0006256] yielded an inhibition at 4 µM (OR8/OR7) of 51 to 74%, an IC50 (OR8/OR7) of over 1000 nM and an inhibition at 4 µM [1] of 26 to 50%. The inhibition at 4 µM (OR28/OR7) was over 75%, the IC50 (OR28/OR7) was under 100 nM and the inhibition at 4 µM (TRP channel (TRPM8)) was 26 to 50%.

COCCCN(CC(=O)N1CCc2sccc2C1COc1cccc(OC)c1)C(=O)Cc1ccccc1 (stereo not shown) [RU-0036264] gave an inhibition at 4 µM (OR8/OR7) of 26 to 50%, an inhibition at 4 µM [1] of under 25% and an inhibition at 4 µM (OR28/OR7) of 51 to 74%. The IC50 (OR28/OR7) was 100 to 1000 nM and the inhibition at 4 µM (TRP channel (TRPM8)) was 26 to 50%.

In the case of CCN(CC)C(=O)Oc1ccc2c(ccn2Cc2cccc(C)c2)c1NC(=O)[C@H](C)OC(C)=O [RU-0075468], the inhibition at 4 µM (OR8/OR7) is reported as under 25%, the inhibition at 4 µM [1] is reported as under 25% and the inhibition at 4 µM (OR28/OR7) is reported as over 75%. For the same compound, the IC50 (OR28/OR7) was under 100 nM and the inhibition at 4 µM (TRP channel (TRPM8)) was under 25%.

With CN(Cc1ccccc1)C(=O)CCC1CCN(C(=O)CCOc2ccccc2)CC1 [RU-0028727] the IC50 ([1]; Table B, read-out: IC50 5HT3) was over 1000 nM, the inhibition at 4 µM [1] was 51 to 74% and the inhibition at 4 µM (OR28/OR7) was over 75%. It also gave an IC50 (OR28/OR7) of under 100 nM and an inhibition at 4 µM (TRP channel (TRPM8)) of 26 to 50%.

For CCOC(=O)C(c1cccc(OC)c1)C1C=CC(NC(=O)c2cccs2)C1 (stereo not shown) [RU-0074560], the inhibition at 4 µM (OR8/OR7) was under 25%, the inhibition at 4 µM [1] was under 25% and the inhibition at 4 µM (OR28/OR7) was 51 to 74%. It also gave an IC50 (OR28/OR7) of over 1000 nM and an inhibition at 4 µM (TRP channel (TRPM8)) of under 25%.
